Patent US20240277658A1, “NLRP3 ACTIVATORS FOR USE IN THE TREATMENT OF INFECTIOUS DISEASES OR CANCER BY ACTIVATING NLRP3 INFLAMMASOME” (ALBERT-LUDWIGS-UNIVERSITÄT FREIBURG, priority 2020, published 2024)
Several values for one entry are separate records, joined by “and”; a condition that tells them apart may be missing. Identical values can stand only once. Like-named read-outs stand apart in the source and are kept apart here.

Experiments:
NLRP3 inflammasome = biological target: T1, NLRP3 inflammasome (Mus musculus, UniProt Q8R4B8); experiment: IL-1β release from LPS-primed BMDCs (ELISA) as readout of NLRP3 inflammasome activation; format: cell-based
T1 construct: endogenous in cells; host or cells: primary mouse bone marrow-derived dendritic cells (BMDCs), LPS-primed
In short: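 NLRP3 inflammasome activation was read out as IL-1β released into the supernatant, measured by ELISA. Murine BMDCs were primed with LPS (50 ng ml^−1, 3 hours), then incubated with compounds for 3 hours, with each condition run in three technical replicates. Nigericin at 5 μM acted as the positive control activator, and IL-1β release was also expressed as a percentage of that control.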

BMDCs = experiment: LDH release (lytic cell death, pyroptosis) from LPS-primed BMDCs; format: cell-based, mouse; conditions: for Average (% positive control): LDH release; for cytotoxicity at 50 µM / cytotoxicity at 20 µM / cytotoxicity at 40 µM / cytotoxicity at 80 µM: Mus musculus, BMDC; for cytotoxicity at 50 µM: LPS-primed BMDCs
In short: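 Mouse BMDCs (7-9 days differentiated, GM-CSF) primed with 50 ng ml^−1 E. coli K12 LPS for 3 hours, then exposed 3 hours to compounds (50 μM unless indicated) or activators (nigericin 5 μM; R837, CL097 100 μM). Lytic death measured as LDH release by colorimetric assay, triplicate wells.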

[1] = IL-1β release, compound 50 μM, positive control nigericin 5 μM
[2] = compound 50 μM, LPS-primed BMDCs
[3] = single replicates, compound 50 μM, LPS-primed BMDCs
[4] = compound 50 μM, positive control nigericin 5 μM
[5] = compound 50 μM, read-out: Average LDH release (% of max.)
[6] = single replicates, compound 50 μM, read-out: LDH release (% of max.)
[7] = 20 μM, individual replicate values
[8] = 40 μM, individual replicate values
[9] = 80 μM, individual replicate values
[10] = IL-1β, 20 μM, positive control EN22
[11] = IL-1β, 40 μM, positive control EN22
[12] = IL-1β, 80 μM, positive control EN22
[13] = 20 μM, positive control EN22 20 μM
[14] = 40 μM, positive control EN22 20 μM
[15] = 80 μM, positive control EN22 20 μM
[16] = 20 μM, individual replicate values, read-out: LDH release (% of max.)
[17] = 20 μM, read-out: Average LDH release (% of max.)
[18] = 40 μM, individual replicate values, read-out: LDH release (% of max.)
[19] = 40 μM, read-out: Average LDH release (% of max.)
[20] = 80 μM, individual replicate values, read-out: LDH release (% of max.)
[21] = 80 μM, read-out: Average LDH release (% of max.)

T1 sequence (Q8R4B8 whole entry): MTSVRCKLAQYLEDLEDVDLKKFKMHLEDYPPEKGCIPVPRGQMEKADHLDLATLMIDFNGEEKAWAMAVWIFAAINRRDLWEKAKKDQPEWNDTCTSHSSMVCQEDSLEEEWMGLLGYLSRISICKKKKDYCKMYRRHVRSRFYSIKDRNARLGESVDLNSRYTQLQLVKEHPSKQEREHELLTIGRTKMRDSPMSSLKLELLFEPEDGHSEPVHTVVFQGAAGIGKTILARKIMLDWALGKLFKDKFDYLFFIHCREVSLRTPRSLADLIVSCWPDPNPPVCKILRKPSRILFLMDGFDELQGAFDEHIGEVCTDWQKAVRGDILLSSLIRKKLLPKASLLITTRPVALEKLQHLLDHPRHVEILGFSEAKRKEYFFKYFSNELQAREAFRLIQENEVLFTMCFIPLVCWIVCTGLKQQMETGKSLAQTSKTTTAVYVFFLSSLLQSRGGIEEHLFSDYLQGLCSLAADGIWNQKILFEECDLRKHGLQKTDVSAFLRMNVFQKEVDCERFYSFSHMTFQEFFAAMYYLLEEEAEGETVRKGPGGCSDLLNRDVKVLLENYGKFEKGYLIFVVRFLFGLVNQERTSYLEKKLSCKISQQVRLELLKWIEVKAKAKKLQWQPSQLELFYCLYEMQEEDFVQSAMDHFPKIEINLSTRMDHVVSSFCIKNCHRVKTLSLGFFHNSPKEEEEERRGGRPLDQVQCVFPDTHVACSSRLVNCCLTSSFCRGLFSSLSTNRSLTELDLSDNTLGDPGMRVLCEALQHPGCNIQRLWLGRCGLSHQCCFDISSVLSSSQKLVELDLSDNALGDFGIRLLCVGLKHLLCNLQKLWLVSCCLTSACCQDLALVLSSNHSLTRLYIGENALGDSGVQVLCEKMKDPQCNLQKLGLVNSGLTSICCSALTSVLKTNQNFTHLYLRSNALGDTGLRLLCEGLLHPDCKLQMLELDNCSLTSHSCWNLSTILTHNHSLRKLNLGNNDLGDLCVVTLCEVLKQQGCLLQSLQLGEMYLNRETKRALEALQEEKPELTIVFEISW

| Structure (SMILES) | Average (% positive control) (NLRP3 inflammasome; [1]) | Average IL-1β (NLRP3 inflammasome; [2]) [ng/mL] | Average IL-1β (NLRP3 inflammasome; 20 μM) [ng/mL] | Average IL-1β (NLRP3 inflammasome; 40 μM) [ng/mL] | Average IL-1β (NLRP3 inflammasome; 80 μM) [ng/mL] | Average (% positive control) (NLRP3 inflammasome; [10]) | Average (% positive control) (NLRP3 inflammasome; [11]) | Average (% positive control) (NLRP3 inflammasome; [12]) | IL-1β (NLRP3 inflammasome; [3]) | Average (% positive control) (BMDCs; [4]) | cytotoxicity at 50 µM (BMDCs; [5]) [%] | cytotoxicity at 50 µM (BMDCs; [6]) [%] | IL-1β (NLRP3 inflammasome; [7]) | IL-1β (NLRP3 inflammasome; [8]) | IL-1β (NLRP3 inflammasome; [9]) | Average (% positive control) (BMDCs; [13]) | Average (% positive control) (BMDCs; [14]) | Average (% positive control) (BMDCs; [15]) | cytotoxicity at 20 µM (BMDCs; [16]) [%] | cytotoxicity at 20 µM (BMDCs; [17]) [%] | also measured |
| --- | --- | --- | --- | --- | --- | --- | --- | --- | --- | --- | --- | --- | --- | --- | --- | --- | --- | --- | --- | --- | --- |
| CN1C(=O)c2ccc(NC(=O)Nc3ccccc3)cc2C1=O [L01.128, 3-(2-methyl-1,3-dioxo-2,3-dihydro-1H-iso-indol-5-yl)-1-phenyl-urea] | 5.819 | 0.417 |  |  |  |  |  |  | 0.456 ng/mL and 0.394 ng/mL and 0.402 ng/mL | 16.086 | 11.8 | 12.1 |  |  |  |  |  |  |  |  |  |
| COc1ccccc1NC(=O)NCc1nc(-c2cccnc2)no1 [L01.043, 1-(2-methoxyphenyl)-3-{[3-(pyridin-3-yl)-1,2,4-oxadiazol-5-yl]methyl}-urea] | 3.697 | 0.265 |  |  |  |  |  |  | 0.282 ng/mL and 0.272 ng/mL and 0.242 ng/mL | 11.039 | 8.08 | 8.07 |  |  |  |  |  |  |  |  |  |
| COCc1cc(F)ccc1NC(=O)NC(c1nc(-c2cccnc2)no1)C(C)C (stereo not drawn) [L01.054, 1-[4-fluoro-2-(methoxy-methyl)phenyl]-3-{2-methyl-1-[3-(pyridin-3-yl)-1,2,4-oxadiazol-5-yl]propyl}urea] | 0.947 | 0.068 |  |  |  |  |  |  | 0.067 ng/mL and 0.062 ng/mL and 0.074 ng/mL | 11.431 | 8.36 | 7.79 |  |  |  |  |  |  |  |  |  |
| O=C(Nc1ccccc1)Nc1cccc(NC(=O)C2CCCC2)c1 [L01.103, N-{3-[(phenylcarbamo-yl)amino]phenyl}cyclo-pentanecarboxamide] | 1.624 | 0.116 |  |  |  |  |  |  | 0.060 ng/mL and 0.049 ng/mL and 0.240 ng/mL | 10.791 | 7.89 | 6.58 |  |  |  |  |  |  |  |  |  |

The next lines start with results.

| Average (% positive control) (NLRP3 inflammasome; [1]) | Average IL-1β (NLRP3 inflammasome; [2]) [ng/mL] | Average IL-1β (NLRP3 inflammasome; 20 μM) [ng/mL] | Average IL-1β (NLRP3 inflammasome; 40 μM) [ng/mL] | Average IL-1β (NLRP3 inflammasome; 80 μM) [ng/mL] | Average (% positive control) (NLRP3 inflammasome; [10]) | Average (% positive control) (NLRP3 inflammasome; [11]) | Average (% positive control) (NLRP3 inflammasome; [12]) | Structure (SMILES) | IL-1β (NLRP3 inflammasome; [3]) | Average (% positive control) (BMDCs; [4]) | cytotoxicity at 50 µM (BMDCs; [5]) [%] | cytotoxicity at 50 µM (BMDCs; [6]) [%] | IL-1β (NLRP3 inflammasome; [7]) | IL-1β (NLRP3 inflammasome; [8]) | IL-1β (NLRP3 inflammasome; [9]) | Average (% positive control) (BMDCs; [13]) | Average (% positive control) (BMDCs; [14]) | Average (% positive control) (BMDCs; [15]) | cytotoxicity at 20 µM (BMDCs; [16]) [%] | cytotoxicity at 20 µM (BMDCs; [17]) [%] | also measured |
| --- | --- | --- | --- | --- | --- | --- | --- | --- | --- | --- | --- | --- | --- | --- | --- | --- | --- | --- | --- | --- | --- |
|  |  | 0.576 | 0.604 | 0.752 | 29.413 | 30.877 | 38.413 | N#Cc1ccc(NC(=O)Nc2ccc3ncccc3c2)cc1 [JB011, 1-(4-cyanophenyl)-3-(quinolin-6-yl)urea] |  |  |  |  | 0.562 ng/mL and 0.612 ng/mL and 0.553 ng/mL | 0.538 ng/mL and 0.564 ng/mL and 0.711 ng/mL | 0.912 ng/mL and 0.737 ng/mL and 0.607 ng/mL | 21.883 | 24.799 | 31.296 | 11.5 | 11.7 | cytotoxicity at 40 µM (BMDCs; [18]): 12.6%; cytotoxicity at 40 µM (BMDCs; [19]): 13.2%; cytotoxicity at 80 µM (BMDCs; [20]): 16.4%; cytotoxicity at 80 µM (BMDCs; [21]): 16.7% |
|  |  | 0.971 | 1.507 | 1.657 | 49.601 | 76.971 | 84.675 | O=C(Nc1ccccc1)Nc1ccc2ncc(Br)cc2c1 [JB004, 1-(3-bromoquinolin-6-yl)-3-phenylurea] |  |  |  |  | 0.966 ng/mL and 0.765 ng/mL and 1.182 ng/mL | 1.350 ng/mL and 1.479 ng/mL and 1.691 ng/mL | 1.684 ng/mL and 1.413 ng/mL and 1.876 ng/mL | 39.589 | 51.749 | 68.244 | 31 | 21.1 | cytotoxicity at 40 µM (BMDCs; [18]): 25.6%; cytotoxicity at 40 µM (BMDCs; [19]): 27.6%; cytotoxicity at 80 µM (BMDCs; [20]): 34.3%; cytotoxicity at 80 µM (BMDCs; [21]): 36.4% |
